Test results taken from patent publication US9617197B2, “Compositions and methods for treating inflammatory diseases” (University of Virginia Patent Foundation, priority 2010, dated 2017).

Columns and labels:
[1] = test system: elastase induced murine pulmonary emphysema; assay: Elastase-induced murine pulmonary emphysema model; assay type: in vivo, mice; conditions: for pre mortem lung compliance (Flexivent): 4 weeks after intra-nasal elastase, drug intra-peritoneal in peanut oil, FIG. 3; for severity of pulmonary emphysema: vs vehicle treated control animals
Method: To investigate the role that LTA4H plays in the pathogenesis of human diseases, murine models of elastase-induced pulmonary emphysema (Example 1) and LPS-induced acute lung injury (Example 3) were tested. In order to establish the elastase-dose dependent severity of murine pulmonary emphysema, increasing doses of porcine elastase were instilled into murine lungs of 129J background via the intra-nasal route. Four weeks after elastase was instilled, mouse lungs were harvested en block, inflated with 1% low melting point agarose gel (LMPA) at 25 cm melted 1% LMPA pressure. Lungs were then fixed overnight in formaldehyde. […] This confirmed that intra-nasal elastase administration was able to induce pulmonary emphysema in a dose-dependent manner.
(§1) In order to establish the biological roles of LTA4H AP activity in the pathogenesis of pulmonary emphysema, wild type mice were exposed to porcine elastase via the intra-nasal route and then treated with one LTA4H AP activity augmentor (compound 66, MDM), a LTA4H AP activity inhibitor (compound 67, PDM), or vehicle (peanut oil). Synthesis of MDM was accomplished by treatment of 4-benzyl phenol in dimethylformamide solvent with potassium hydroxide followed by methyl iodide (FIG. 1). Synthesis of compound PDM was accomplished by treatment of 4-benzyl phenol in dimethylformamide solvent with potassium hydroxide followed by butyl iodide (FIG. 1). The peptidase activity of the compound was determined following the method of Jiang and co-workers (2008).
Elastase (0.75 μg elastase per gm mouse weight) was instilled via the intra-nasal route. After 4 weeks, mice were sedated, intubated, and ventilated with Sireq Flexivent to measure lung compliance pre mortem. It was understood that lungs with more severe emphysema would have lost more elasticity, and thus, their lung compliance would be greater when measured by a small animal ventilator (FIG. 3). Once lung compliance was measured, mice were euthanized. Lungs were harvested en block without damaging outer coverings. Once harvested, lungs were inflated with 1% low melting point agarose gel (LMPA) at 25 cm melted 1% LMPA gel pressure. Once inflated, the total lung volumes were measured by volume displacement technique (FIG. 4). It was understood that lungs with more severe emphysema would have lost more elasticity, and thus their lung volume would be greater after being inflated with a uniform pressure. After the total lung volume measurement, lungs were fixed in para-formaldehyde overnight. On the following day, whole lungs were photographed (FIG. 5). Lungs with more severe emphysema would have lost more elasticity, and thus their lungs would be larger after being fixed with para-formaldehyde. The lungs were then paraffin embedded, paraffin sections were H&E stained (FIG. 6A), and morphometry was performed by using NIH ImagePro software and custom written macro string (Shim et al., 2006; Shim et al., 2010; Zheng et al., 2000; Zu et al., 1999). Alveolar intercepts were calculated and averaged from at least 8 animals in each group to yield chord length of each group (FIG. 6B). It was understood that alveoli from lungs with more severe emphysema would be larger after losing more elasticity and thus their chord length of the alveoli would be longer.

[2] = target: T1, human recombinant LTA4H enzyme (LTA4H AP activity) (Homo sapiens, UniProt P09960); assay: In vitro aminopeptidase activity assay; assay type: biochemical; conditions: recombinant LTA4H + Ala-pNA; 500 μM, 10 μM, 5 μM, 100 nM; FIG. 2
T1 sequence (P09960 1-611): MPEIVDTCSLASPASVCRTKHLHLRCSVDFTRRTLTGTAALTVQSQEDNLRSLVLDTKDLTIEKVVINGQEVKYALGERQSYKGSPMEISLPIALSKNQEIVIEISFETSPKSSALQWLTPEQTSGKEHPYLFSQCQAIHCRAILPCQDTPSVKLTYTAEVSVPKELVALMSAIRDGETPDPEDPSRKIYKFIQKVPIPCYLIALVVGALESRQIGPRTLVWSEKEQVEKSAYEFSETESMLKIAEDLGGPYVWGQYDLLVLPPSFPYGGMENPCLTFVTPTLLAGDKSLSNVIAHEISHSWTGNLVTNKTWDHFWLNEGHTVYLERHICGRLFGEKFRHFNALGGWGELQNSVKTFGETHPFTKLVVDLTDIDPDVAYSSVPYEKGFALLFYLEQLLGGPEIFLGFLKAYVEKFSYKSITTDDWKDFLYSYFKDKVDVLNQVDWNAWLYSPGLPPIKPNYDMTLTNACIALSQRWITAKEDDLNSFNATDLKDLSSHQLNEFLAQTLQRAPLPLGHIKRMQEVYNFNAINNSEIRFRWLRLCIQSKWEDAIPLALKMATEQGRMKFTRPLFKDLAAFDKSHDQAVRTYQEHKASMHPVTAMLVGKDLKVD
Method: FIG. 2. In vitro aminopeptidase activity assay. The peptidase activity of compounds was determined following the method of Jiang and co-workers (2008). […] No Enzyme=buffer. Enzy=buffer+recombinant LTA4H. 500 μM, 10 μM, 5 μM, and 100 nM=buffer+recombinant LTA4H+Ala-pNA+MDM.
FIG. 7. Biological activities of 2-hydroxypropyl-β-cyclodextrin encapsulated 4-methoxydiphenylmethane (“CDX-MDM”). […] No Enzyme=buffer. 0 M=buffer+recombinant LTA4H+Ala-pNA+no MDM. 500 μM, 10 μM, 5 μM, and 100 nM=buffer+recombinant LTA4H+Ala-pNA+MDM (500 μM, 10 μM, 5 μM, or100 nM).
as §1

[3] = Chemical stability in pH 6.7 buffer; assay type: physicochemical
[4] = Encapsulation and equilibrium solubility test (HPLC); assay type: physicochemical
Method: To 5.3 mg (1.0 equivalent) of MDM was added 160.0 mg (4.0 equivalents) of CDX followed by 4.8 mL of water. […] The homogeneity of the solution was analyzed by HPLC.
Solubility measurement. […] Method: isocratic 80:20 acetonitrile-water at 1.0 mL/min, injection volume=5 μL, monitoring at λ=250 nm.
The method was carried out above with phosphate buffer saline (PBS, Ampresco, 20× concentrate, pH7.5; 500 μL of PBS concentrate was added to 9500 μL of water). To 6.0 mg (1.0 equivalents) of MDM was added 180.0 mg (4.0 equivalents) of CDX followed by 5.8 mL of water. […] The homogeneity of the solution was analyzed by HPLC.
The method was carried out as above. To 2.4 mg (1.0 equivalents) of MDM was added 0.035 g (2.0 equivalents) of CDX followed by 2.4 mL of PBS solution. […] The homogeneity of the solution was analyzed by HPLC.

[5] = Bioavailability in mice; assay type: in vivo
[6] = Toxicity in murine pre-clinical models; assay type: in vivo
[7] = target: T1, human recombinant LTA4H enzyme (LTA4H AP activity); conditions: Jiang et al. (2008); cited from earlier work

SMILES	pre mortem lung compliance (Flexivent) [1]	severity of pulmonary emphysema [1]	LTA4H AP activity [2]	post mortem total lung volume (volume displacement) ([1]; vs PDM or vehicle control, FIG. 4)	gross size of inflated whole lungs ([1]; vs PDM or vehicle control, FIG. 5)	lung histology chord length ([1]; vs drug 67 or vehicle (peanut oil), FIG. 6)	chemical stability in pH 6.7 buffer [3]	concentration in solution by standard curve ([4]; 1:2 MDM:CDX in PBS, calculated 5.04 mM) [µM]	fraction of the MDM in the homogeneous solution at equilibrium ([4]; 1:2 ratio of MDM:CDX in PBS) [%]	solubility with 2 equivalents of CDX ([4]; PBS solution) [µg/mL]	bioavailability ([5]; encapsulated formulation with 2-hydroxypropyl-β-cyclodextrin, intra-nasal administration to mice)	bioavailability ([5]; intra-peritoneal injection of mice, MDM combined with peanut oil)	mortality [6]	LTA4H AP activity in vitro [7]
CCCCCOc1ccc(Cc2ccccc2)cc1 [PDM, 4-pentoxydiphenylmethane]	high lung compliance similar to lungs treated with vehicle	deleterious outcomes	decrease											
COc1ccc(Cc2ccccc2)cc1 [MDM, 4-methoxydiphenylmethane]	significantly lower lung compliance	significantly less severe	augment	much less emphysematous	much smaller	shorter	stable	2950	59	590	bioavailable	bioavailable		
COc1ccc(Oc2ccccc2)cc1 [1-methoxy-4-phenoxybenzene]							chemical instability						greater than 85%	upregulates
